Data reported in US9200017B2, “Multimodal imaging of fibrin” (The General Hospital Corporation, priority 2009, dated 2015).
Positions of bridges follow the written chain, without caps; N, C: chain ends. Non-standard residues stand in square brackets, D forms with d. Residues, ends and D or L forms follow the SMILES beside them. *: point of attachment. DOTA(p-xylylenediamine) = O=C(O)CN1CCN(CC(=O)O)CCN(CC(=O)NCc2ccc(CN*)cc2)CCN(CC(=O)O)CC1; X1 = O=C1OC2(c3ccc(O)cc3Oc3cc(O)ccc32)c2ccc(NC(=S)NCc3ccc(CN*)cc3)cc21; FITC = O=C1OC2(c3ccc(O)cc3Oc3cc(O)ccc32)c2ccc(NC(=S)*)cc21; DOTA = O=C(O)CN1CCN(CC(=O)O)CCN(CC(=O)*)CCN(CC(=O)O)CC1; Tyr(3-Cl) = N[C@@H](Cc1ccc(O)c(Cl)c1)C(=O)O; Hyp = O=C(O)[C@@H]1C[C@@H](O)CN1; Ahx = NCCCCCC(=O)O

Tests used:
fibrin gel [1] = test: MR phantom study at 1.5 T in fibrinogen solution and fibrin gel; conditions: 25 μM Gd in 5 mg/mL fibrin gel, T1-weighted
Procedure: Fibrinogen (fgn) (50 mg, American Diagnostica) was dissolved in 1 mL of TBS (50 mM Tris, 150 mM sodium chloride, pH 7.4) and was dialyzed against TBS with 5 mM sodium citrate. The concentration of the resulting fibrinogen solution was 8.8 mg/mL based on the absorbance at 280 nm where 1 mg/mL fgn has an optical density of 1.512 for a 1 cm path length. Solutions were prepared by diluting stock solutions of gadolinium probe and fgn to final solutions of 25 μM Gd and 5 mg/mL fgn. Gadolinium concentrations were determined by ICP-MS. Fibrin gels were prepared by adding CaCl2 and thrombin to a final concentration of 7 mM and 4 U/mL, respectively. After briefly mixing the CaCl2 and thrombin, the solutions were allowed to gel/clot for 30 minutes. After fibrin (fbn) formation was complete, the clots were pushed to the wall of the tube with a pipet tip. A total of 6×0.5 mL phantoms were prepared in 1 mL centrifuge tubes: A) pure water; B) 5 mg/mL fibrinogen; C) [Gd(HP-DO3A)] at 25 μM in 5 mg/mL fgn; D) [Gd(HP-DO3A)] at 25 μM in 5 mg/mL fbn gel; E) GdDOTA-cyclic-FBP-p-XD-FITC (compound 17) at 25 μM in 5 mg/mL fgn; F) GdDOTA-cyclic-FBP-p-XD-FITC (compound 17) at 25 μM in 5 mg/mL fbn gel.
All 6 phantoms were simultaneously imaged at room temperature at 1.5 T with a clinical MRI. T1-weighted gradient echo images were acquired with repetition time TR=9.2 ms, echo time TE=1.9 ms, flip angle=25°.

Human fibrin = target: T1, Human fibrin (Homo sapiens, UniProt P02671+P02675+P02679); test: Binding to human fibrin, dried fibrin microtiter plate, stoichiometric binding model; conditions: dried human fibrin about 2.5 mg/mL, compound 0.1 to 50 μM, 2 h; read-out: Kd, first binding event
T1 construct: thrombin cleaves fibrinopeptides on fibrinogen resulting in an end-to-end polymerization to give the polymer fibrin; Human fibrinogen (American Diagnostica) was dialyzed; purchased American Diagnostica
T1 sequence (P02671 36-629 limits assumed): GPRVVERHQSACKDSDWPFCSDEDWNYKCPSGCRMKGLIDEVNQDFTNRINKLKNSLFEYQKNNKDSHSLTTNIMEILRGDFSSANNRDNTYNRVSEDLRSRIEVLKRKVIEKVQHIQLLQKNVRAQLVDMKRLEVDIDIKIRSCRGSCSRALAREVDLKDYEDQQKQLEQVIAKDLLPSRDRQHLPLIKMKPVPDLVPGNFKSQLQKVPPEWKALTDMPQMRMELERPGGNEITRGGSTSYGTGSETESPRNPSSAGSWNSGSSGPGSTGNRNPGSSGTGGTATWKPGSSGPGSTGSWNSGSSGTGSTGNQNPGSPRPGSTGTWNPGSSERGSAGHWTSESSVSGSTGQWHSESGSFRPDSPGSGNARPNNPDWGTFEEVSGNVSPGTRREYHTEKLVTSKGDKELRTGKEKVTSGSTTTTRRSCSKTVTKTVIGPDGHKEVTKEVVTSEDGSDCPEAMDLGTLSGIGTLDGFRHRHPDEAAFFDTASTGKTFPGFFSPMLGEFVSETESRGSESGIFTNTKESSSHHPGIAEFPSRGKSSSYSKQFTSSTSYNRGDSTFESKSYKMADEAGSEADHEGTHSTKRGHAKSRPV
T1 sequence (P02675 45-491 limits assumed): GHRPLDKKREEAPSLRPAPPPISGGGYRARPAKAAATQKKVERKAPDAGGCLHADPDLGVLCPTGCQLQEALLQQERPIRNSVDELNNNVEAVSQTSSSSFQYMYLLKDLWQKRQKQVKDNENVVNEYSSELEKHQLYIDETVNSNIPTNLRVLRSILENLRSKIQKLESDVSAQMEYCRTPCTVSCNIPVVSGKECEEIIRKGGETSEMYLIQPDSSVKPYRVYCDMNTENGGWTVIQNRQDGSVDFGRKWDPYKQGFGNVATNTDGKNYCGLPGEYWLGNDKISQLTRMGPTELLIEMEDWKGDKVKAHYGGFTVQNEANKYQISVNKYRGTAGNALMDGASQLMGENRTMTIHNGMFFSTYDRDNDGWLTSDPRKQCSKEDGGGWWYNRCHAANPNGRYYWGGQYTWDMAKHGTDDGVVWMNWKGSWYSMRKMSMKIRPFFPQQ
T1 sequence (P02679 27-437 isoform P02679-2 limits assumed): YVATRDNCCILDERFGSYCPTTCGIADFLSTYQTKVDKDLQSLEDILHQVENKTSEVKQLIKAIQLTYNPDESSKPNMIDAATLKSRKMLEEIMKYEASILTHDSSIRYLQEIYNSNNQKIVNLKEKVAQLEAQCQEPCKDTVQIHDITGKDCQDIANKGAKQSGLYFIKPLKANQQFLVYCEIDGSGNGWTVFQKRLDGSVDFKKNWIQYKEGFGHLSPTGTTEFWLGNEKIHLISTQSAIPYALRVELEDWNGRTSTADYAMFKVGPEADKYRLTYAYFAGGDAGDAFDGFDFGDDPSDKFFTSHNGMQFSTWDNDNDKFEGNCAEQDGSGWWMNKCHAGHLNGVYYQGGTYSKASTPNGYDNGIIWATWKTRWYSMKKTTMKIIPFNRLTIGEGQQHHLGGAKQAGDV
Procedure: Binding can also be assessed by a dried fibrin assay. Here, purified fibrinogen (2.5 mg/mL; 7 μM fibrin) is clotted with thrombin and dried to a thin film in wells of a microtiter plate. The resulting clots bind to the plate without loss of protein. The clots are rehydrated with buffer containing known concentrations of peptide. After incubation at 37° C. for 2 hr, the concentration of peptide in the supernatant ([peptide]free) is determined (e.g. by HPLC or if the peptide is labeled with a fluorophore by fluorescence, or if labeled by a radionuclide concentration is determined by radioactivity). The concentration of fibrin-bound peptide ([peptide]bound) is calculated by subtraction ([peptide]bound)=[peptide]total−[peptide]free). A dissociation constant (Kd) for fibrin binding can be determined by fitting a plot of [peptide]bound versus [peptide]free to either a stoichiometric (see e.g. Nair et al., Angew Chem Int Ed 2008 47:4918-21) or equivalent binding sites model (see e.g. Overoye-Chan et al. J Am Chem Soc 2008 130:6025-39). […]
Solutions of compound ranging from 0.1 to 50 μM were added to each of the wells of the dried fibrin microtiter plate, and the plate was shaken for 2 h. After incubation, solution was removed and the concentration of unbound compound was determined from its radioactivity or by ICP-MS. […]

fibrin gel [2] = target: T2, fibrin gel (Homo sapiens, UniProt P02671+P02675+P02679); test: Phantom study with PET in fibrinogen solution and fibrin gel; conditions: 2 mg/mL fibrin gel, 150 nCi, 2.3 nmol, 21° C.
T2 construct: thrombin cleaves fibrinopeptides on fibrinogen resulting in an end-to-end polymerization to give the polymer fibrin; Fibrin is a fibrillar protein derived from the soluble plasma protein fibrinogen
T2 sequence (P02671 36-629 limits assumed): T1 sequence (P02671 36-629 limits assumed)
T2 sequence (P02675 45-491 limits assumed): T1 sequence (P02675 45-491 limits assumed)
T2 sequence (P02679 27-437 isoform P02679-2 limits assumed): T1 sequence (P02679 27-437 isoform P02679-2 limits assumed)
Procedure: ^64CuDOTA was prepared by reacting 200 μCi of ^64CuCl2 with DOTA ligand (50 nmol) in 200 μL water at pH 6.5. The pH of the solution was maintained at 6.5 and the reaction was stirred at 50° C. for 30 min. The solution was then passed through a cation-exchange resin. The resin was washed with water and the total final volume was 600 μL.
Six phantoms were prepared in 4 mL glass culture tubes. Each phantom contained fibrinogen (fgn) at a final concentration of 2 mg/mL, 2.3 nmol of peptide or DOTA, a total volume of 2 mL, and a total activity of 150 nCi. In 3 of the phantoms, Fibrin gels (fbn) were prepared by adding CaCl2 and thrombin to a final concentration of 7 mM and 4 U/mL, respectively. Once the clots had formed, the mixture was centrifuged and the clots settled to the bottom. […]
The 6 tubes were placed in a holder with each tube equidistant from the isocenter and PET data was collected for 15 minutes. […] Each of the 32 PET detector modules consists of six 12×12 LSO crystal arrays read out by a 3×3 array of APDs (Hamamatsu 8664-55, Japan). […] The emission data recorded in list-mode format were sorted in the line of response space and compressed axially in the sinogram space for fast reconstruction. The normalization was calculated from a 64-hour scan of a plane-source rotated in the FOV. […]

fibrin gel [3] = target: T2, fibrin gel; test: Phantom study with fluorescence imaging in fibrinogen solution and fibrin gel; conditions: 50 nM in 2 mg/mL fibrin gel
Procedure: A 10 mM solution of fluorescein was prepared in ethanol by adding 0.0113 g of fluorescein to 3 mL EtOH. This solution was diluted in water to prepare a 9.99 μM solution. Also, a dilute solution of GdDOTA-cyclic-FBP-p-XD-FITC was prepared with a final concentration of 8.55 μM. Four phantoms were prepared in 1 mL glass tubes. Each phantom contained fibrinogen at a final concentration of 2 mg/mL, 50 pmol of GdDOTA-cyclic-FBP-p-XD-FITC or fluorescein, at a total volume of 1 mL. In two of the phantoms, fibrin gels were prepared by adding CaCl2 and thrombin to a final concentration of 7 mM and 4 U/mL, respectively. Once the clots had formed, the mixture was centrifuged and the clots settled to the bottom. The 4 phantoms were labeled: A) GdDOTA-cyclic-FBP-p-XD-FITC in fgn; B) GdDOTA-cyclic-FBP-p-XD-FITC in fbn gel; C) fluorescein in fbn gel D) fluorescein in fgn. The phantoms were imaged with an IVIS Spectrum imager.

## CC(O)CN1CCN(CC(=O)[O-])CCN(CC(=O)[O-])CCN(CC(=O)[O-])CC1.[Gd+3] (stereo not drawn) [GdHP-DO3A, reference compound]
Fibrin gel [1]
  MR signal distribution between clotted fibrin and supernatant: distributed equally between the clotted fibrin and the supernatant

## CC[C@H](C)[C@H](NC(=O)[C@H](Cc1ccc(O)cc1)NC(=O)[C@@H]1CSSC[C@H](NC(=O)[C@@H](CCC(=O)O)NC(=O)[C@H](Cc2ccc(O)cc2)NC(=O)CCCCCNC(=S)Nc2ccc3c(c2)C(=O)OC32c3ccc(O)cc3Oc3cc(O)ccc32)C(=O)N2C[C@H](O)C[C@H]2C(=O)N[C@@H](Cc2ccc(O)c(Cl)c2)C(=O)NCC(=O)N[C@@H](CC(C)C)C(=O)N1)C(=O)N[C@@H](CCC(N)=O)C(=O)NCc1ccc(CNC(=O)CN2CCN(CC(=O)O)CCN(CC(=O)O)CCN(CC(=O)O)CC2)cc1 [Compound 11, FITC-hexyl-cyclic-FBP-p-XD-DOTA-Gd] ({FITC-Ahx}-Y[dE]C[Hyp][Tyr(3-Cl)]GLCYIQ-{DOTA(p-xylylenediamine)}; disulfide 3-8)
Human fibrin
  Kd: 900 ± 300 nM

## O=C([O-])CN1CCN(CC(=O)O)CCN(CC(=O)[O-])CCN(CC(=O)O)CC1.[64Cu+2] [^64CuDOTA]
Fibrin gel [2]
  PET activity distribution between fibrin clot and liquid above the clot: distributed equally in the clot (bottom of tube B) and in the liquid above the clot

## CC[C@H](C)[C@H](NC(=O)[C@H](Cc1ccc(O)cc1)NC(=O)[C@@H]1CSSC[C@H](NC(=O)[C@@H](CCC(=O)O)NC(=O)[C@H](Cc2ccc(O)cc2)NC(=O)CN2CCN(CC(=O)O)CCN(CC(=O)O)CCN(CC(=O)O)CC2)C(=O)N2C[C@H](O)C[C@H]2C(=O)N[C@@H](Cc2ccc(O)c(Cl)c2)C(=O)NCC(=O)N[C@@H](CC(C)C)C(=O)N1)C(=O)N[C@@H](CCC(N)=O)C(=O)NCc1ccc(CNC(=S)Nc2ccc3c(c2)C(=O)OC32c3ccc(O)cc3Oc3cc(O)ccc32)cc1 [Compound 17, GdDOTA-cyclic-FBP-p-XD-FITC] ({DOTA}-Y[dE]C[Hyp][Tyr(3-Cl)]GLCYIQ-X1; disulfide 3-8)
Fibrin gel [1]
  MR signal distribution between clotted fibrin and supernatant: binding to the fibrin
Fibrin gel [3]
  Fluorescence intensity distribution between fibrin clot and liquid: localizes in the fibrin clot
Human fibrin
  Kd: 800 ± 300 nM
